Source: patent US8765727B2, “Macrocyclic compounds and their use as kinase inhibitors” (Incyte Corporation, priority 2009, dated 2014)

Experiments:
Assay type in all cases: biochemical
[1] = target: human JAK1 (a.a. 837-1142) catalytic domain (Homo sapiens, UniProt P23458); experiment: In vitro JAK kinase assay (HTRF), JAK1; details: 90 μM ATP, 500 nM peptide, room temperature 1 hr
Protocol: (§1) One or more compounds herein were tested for inhibitory activity of JAK targets according to the following in vitro assay described in Park et al., Analytical Biochemistry 1999, 269, 94-104. The catalytic domains of human JAK1 (a.a. 837-1142), JAK2 (a.a. 828-1132) and JAK3 (a.a. 781-1124) with an N-terminal His tag were expressed using baculovirus in insect cells and purified. The catalytic activity of JAK1, JAK2 or JAK3 was assayed by measuring the phosphorylation of a biotinylated peptide. The phosphorylated peptide was detected by homogenous time resolved fluorescence (HTRF). […] The ATP concentration in the reactions was 90 μM for JAK1, 30 μM for JAK2 and 3 μM for JAK3. Reactions were carried out at room temperature for 1 hr and then stopped with 20 μL 45 mM EDTA, 300 nM SA-APC, 6 nM Eu-Py20 in assay buffer (Perkin Elmer, Boston, Mass.). Binding to the Europium labeled antibody took place for 40 minutes and HTRF signal was measured on a Fusion plate reader (Perkin Elmer, Boston, Mass.).

[2] = target: human JAK2 (a.a. 828-1132) catalytic domain (Homo sapiens (Human), UniProt O60674); experiment: In vitro JAK kinase assay (HTRF), JAK2; details: 30 μM ATP, 500 nM peptide, room temperature 1 hr
Sequence of human JAK2 (a.a. 828-1132) catalytic domain (O60674 828-1132): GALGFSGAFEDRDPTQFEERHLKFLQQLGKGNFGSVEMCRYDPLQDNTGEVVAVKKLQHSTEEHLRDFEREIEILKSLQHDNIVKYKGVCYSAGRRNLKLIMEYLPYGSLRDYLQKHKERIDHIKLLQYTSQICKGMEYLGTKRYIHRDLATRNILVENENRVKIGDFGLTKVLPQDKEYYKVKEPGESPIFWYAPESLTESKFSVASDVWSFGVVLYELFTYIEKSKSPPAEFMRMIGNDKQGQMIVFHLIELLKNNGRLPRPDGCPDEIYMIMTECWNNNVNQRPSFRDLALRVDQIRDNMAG
Protocol: One or more compounds herein were tested for inhibitory activity of JAK targets according to the following in vitro assay described in Park et al., Analytical Biochemistry 1999, 269, 94-104. The catalytic domains of human JAK1 (a.a. 837-1142), JAK2 (a.a. 828-1132) and JAK3 (a.a. 781-1124) with an N-terminal His tag were expressed using baculovirus in insect cells and purified. The catalytic activity of JAK1, JAK2 or JAK3 was assayed by measuring the phosphorylation of a biotinylated peptide. The phosphorylated peptide was detected by homogenous time resolved fluorescence (HTRF). […] Binding to the Europium labeled antibody took place for 40 minutes and HTRF signal was measured on a Fusion plate reader (Perkin Elmer, Boston, Mass.).

[3] = target: human JAK3 (a.a. 781-1124) catalytic domain (Homo sapiens (Human), UniProt P52333); experiment: In vitro JAK kinase assay (HTRF), JAK3; details: 3 μM ATP, 500 nM peptide, room temperature 1 hr
Sequence of human JAK3 (a.a. 781-1124) catalytic domain (P52333 781-1124): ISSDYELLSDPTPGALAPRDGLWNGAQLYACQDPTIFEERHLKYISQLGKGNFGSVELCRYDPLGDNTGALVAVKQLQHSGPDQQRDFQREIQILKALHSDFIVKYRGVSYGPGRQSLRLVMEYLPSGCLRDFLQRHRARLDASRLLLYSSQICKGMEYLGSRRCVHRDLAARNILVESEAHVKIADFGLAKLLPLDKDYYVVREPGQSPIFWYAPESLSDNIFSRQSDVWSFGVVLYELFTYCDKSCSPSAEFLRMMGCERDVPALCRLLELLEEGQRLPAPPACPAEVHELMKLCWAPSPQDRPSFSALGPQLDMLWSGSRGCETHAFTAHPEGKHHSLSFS
Protocol: as §1

TYK2 = TYK2 (Homo sapiens (Human), UniProt P29597); experiment: TYK2 assay (as described by Thompson et al.)
Sequence of TYK2 (P29597 whole entry, species assumed): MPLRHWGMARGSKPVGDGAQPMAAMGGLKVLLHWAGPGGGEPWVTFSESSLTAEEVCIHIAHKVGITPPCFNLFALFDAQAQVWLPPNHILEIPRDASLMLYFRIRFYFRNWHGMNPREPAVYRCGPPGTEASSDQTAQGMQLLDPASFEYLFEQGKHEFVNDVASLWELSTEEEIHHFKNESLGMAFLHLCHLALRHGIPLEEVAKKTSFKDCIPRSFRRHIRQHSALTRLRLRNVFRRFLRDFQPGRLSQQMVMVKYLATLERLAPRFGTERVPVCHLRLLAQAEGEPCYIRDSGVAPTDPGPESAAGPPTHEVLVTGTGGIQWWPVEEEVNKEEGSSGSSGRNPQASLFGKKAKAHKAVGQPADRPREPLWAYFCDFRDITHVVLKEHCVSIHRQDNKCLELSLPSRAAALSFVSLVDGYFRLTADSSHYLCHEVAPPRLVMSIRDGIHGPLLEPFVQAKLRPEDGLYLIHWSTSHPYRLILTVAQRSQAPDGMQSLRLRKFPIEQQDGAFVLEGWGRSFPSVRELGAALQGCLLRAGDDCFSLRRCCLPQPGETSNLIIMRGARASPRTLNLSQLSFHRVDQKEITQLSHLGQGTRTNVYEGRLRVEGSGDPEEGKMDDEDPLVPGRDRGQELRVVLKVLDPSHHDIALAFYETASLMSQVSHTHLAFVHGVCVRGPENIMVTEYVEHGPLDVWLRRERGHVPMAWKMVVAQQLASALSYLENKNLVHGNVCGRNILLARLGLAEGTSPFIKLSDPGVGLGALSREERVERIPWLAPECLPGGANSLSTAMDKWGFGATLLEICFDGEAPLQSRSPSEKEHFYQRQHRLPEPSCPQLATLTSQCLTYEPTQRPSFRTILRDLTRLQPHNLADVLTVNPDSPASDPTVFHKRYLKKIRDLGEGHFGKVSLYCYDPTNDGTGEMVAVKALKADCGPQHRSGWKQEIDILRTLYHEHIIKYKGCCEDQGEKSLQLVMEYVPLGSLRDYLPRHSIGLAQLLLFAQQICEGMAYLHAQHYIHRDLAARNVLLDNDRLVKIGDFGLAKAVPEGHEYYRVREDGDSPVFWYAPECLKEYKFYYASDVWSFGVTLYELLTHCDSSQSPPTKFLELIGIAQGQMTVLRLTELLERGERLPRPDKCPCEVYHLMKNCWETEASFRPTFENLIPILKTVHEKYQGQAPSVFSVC
Excerpt: The invention will be described in greater detail by way of specific examples. The following examples are offered for illustrative purposes, and are not intended to limit the invention in any manner. Those of skill in the art will readily recognize a variety of non-critical parameters which can be changed or modified to yield essentially the same results. In some instances where the compounds of the examples were isolated by preparative HPLC in the presence of trifluoroacetic acid (TFA) or other acid, the compound may have been obtained as the corresponding salt. […] Certain compounds described in Tables 1 and in the Example section were tested for inhibitory activity of JAK/ALK targets according to assays such as those described herein or those known in the art [e.g., ALK assays described in WO 04/079326; and TYK2 assays described by James E. Thompson et. al, “Photochemical preparation of a pyridone containing tetracycle: A JAK protein kinase inhibitor,” Bioorganic & Medicinal Chemistry Letters, Volume 12, Issue 8, 22 Apr. 2002, Pages 1219-1223]. […] Some exemplary data of the compounds of the invention are shown in Table 1 in the experimental section.

[4] = target: Recombinant Human Anaplastic Lymphoma Kinase (Homo sapiens (Human), UniProt Q9UM73); experiment: ALK HTRF kinase assay; details: 90 μM ATP, 0.25 nM enzyme, 2 hours at 25° C.
Sequence of Recombinant Human Anaplastic Lymphoma Kinase (Q9UM73 19-1620): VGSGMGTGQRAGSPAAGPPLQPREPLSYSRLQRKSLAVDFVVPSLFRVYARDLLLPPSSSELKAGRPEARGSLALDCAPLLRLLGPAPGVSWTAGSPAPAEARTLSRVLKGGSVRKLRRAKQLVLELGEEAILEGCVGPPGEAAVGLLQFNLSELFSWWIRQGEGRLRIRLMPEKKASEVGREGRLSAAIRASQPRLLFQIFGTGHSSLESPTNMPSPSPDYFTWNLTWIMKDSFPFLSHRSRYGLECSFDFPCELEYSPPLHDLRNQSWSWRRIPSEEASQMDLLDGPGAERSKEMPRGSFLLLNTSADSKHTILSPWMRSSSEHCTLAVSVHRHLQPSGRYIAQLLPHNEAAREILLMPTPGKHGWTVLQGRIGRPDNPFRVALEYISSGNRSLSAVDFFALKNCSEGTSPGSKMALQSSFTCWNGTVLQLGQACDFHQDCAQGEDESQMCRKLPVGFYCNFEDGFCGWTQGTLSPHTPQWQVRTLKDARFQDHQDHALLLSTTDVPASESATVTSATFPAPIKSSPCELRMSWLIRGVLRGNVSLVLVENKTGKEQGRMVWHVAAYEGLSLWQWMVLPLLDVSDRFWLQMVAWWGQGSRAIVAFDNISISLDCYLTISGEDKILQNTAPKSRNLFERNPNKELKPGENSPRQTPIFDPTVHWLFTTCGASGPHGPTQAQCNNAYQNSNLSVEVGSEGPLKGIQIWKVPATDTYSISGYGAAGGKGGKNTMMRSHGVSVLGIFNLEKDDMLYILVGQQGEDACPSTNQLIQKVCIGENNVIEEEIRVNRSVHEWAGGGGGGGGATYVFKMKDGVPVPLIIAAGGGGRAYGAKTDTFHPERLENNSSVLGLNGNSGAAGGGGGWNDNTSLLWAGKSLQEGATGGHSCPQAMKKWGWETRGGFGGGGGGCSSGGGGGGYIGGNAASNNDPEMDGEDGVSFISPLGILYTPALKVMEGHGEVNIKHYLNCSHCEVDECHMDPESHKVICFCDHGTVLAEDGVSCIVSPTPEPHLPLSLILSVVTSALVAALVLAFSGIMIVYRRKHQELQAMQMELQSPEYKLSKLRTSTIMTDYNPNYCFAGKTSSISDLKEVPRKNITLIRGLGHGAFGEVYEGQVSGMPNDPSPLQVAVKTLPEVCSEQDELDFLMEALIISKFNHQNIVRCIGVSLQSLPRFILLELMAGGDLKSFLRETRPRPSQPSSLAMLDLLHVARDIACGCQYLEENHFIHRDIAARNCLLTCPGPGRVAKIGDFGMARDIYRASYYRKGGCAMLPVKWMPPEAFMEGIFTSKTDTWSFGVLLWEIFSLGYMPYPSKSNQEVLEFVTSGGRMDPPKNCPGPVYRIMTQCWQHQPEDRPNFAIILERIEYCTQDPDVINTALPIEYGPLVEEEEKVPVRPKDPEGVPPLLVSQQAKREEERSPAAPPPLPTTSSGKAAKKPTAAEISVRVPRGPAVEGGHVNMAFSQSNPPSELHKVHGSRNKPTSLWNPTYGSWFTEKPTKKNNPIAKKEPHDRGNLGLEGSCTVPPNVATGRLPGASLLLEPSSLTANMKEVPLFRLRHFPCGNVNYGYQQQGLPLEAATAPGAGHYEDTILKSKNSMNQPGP
Protocol: Materials: Recombinant Human Anaplastic Lymphoma Kinase was purchased from Invitrogen, Carlsbad, Calif. Peptide substrate (Biotin-[…]-amide) was custom synthesized at EZBiolab, Westfield, Ind. Streptavidin conjugated SureLight-Allophycocyania and LANCE Eu-W1024 labeled anti-phosphotyrosine antibody were from Perkin-Elmer, Boston, Mass. Microplates were from Corning Inc., Acton, Mass. All other reagents were from Sigma, St. Louis, Mo.
HTRF kinase assay: 40 μL reactions were run in black 384 well polystyrene plates in assay buffer (50 mM Tris, pH 7.8, 100 mM NaCI, 0.1 mg/mL BSA, 5 mM DTT), containing 0.5 μM Biotinylated peptide substrate, 10 mM MgCl2, 90 μM ATP, and 0.25 nM enzyme for 2 hours at 25° C. Reactions were stopped by addition of 20 μL assay buffer supplemented with an additional 50 mM NaCl, 0.4 mg/mL BSA, 45 mM EDTA, 4.5 nM LANCE Eu-W1024 labeled anti-phosphotyrosine antibody and 200 nM streptavidin conjugated SureLight-allophycocyanin. Plates were read in Fusion α-FP instrument (Perkin-Elmer). The concentrations needed to reach 50% inhibition, the IC50 value, were determined by fitting the assay signal to the following equation using Graphpad Prizm. Signal=Bottom+(Top−Bottom)/(1+10^((Log(IC50)−Log [I])*Hill Slope) Bottom and Top refer to the post and pre-transition baselines, respectively.

| IC50 [1] | IC50 [2] | IC50 [3] | IC50 (TYK2) | IC50 [4] | Compound |
| --- | --- | --- | --- | --- | --- |
| 0.102 µM | 0.447 µM | 0.114 µM | 0.386 µM | > 1 µM | Nc1ccc2cc1CCc1cncc(c1)Nc1ncc(Cl)c(n1)NC2 [Example 17, 6-Chloro-2,4,8,19,23-pentaazatetracyclo[15.3.1.1(3,7).1(10,14)]tricosa-1(21),3(23),4,6,10(22),11,13,17,19-nonaen-13-amine] |
| > 1 µM | > 1 µM | > 1 µM | > 1 µM | > 1 µM | O=C(Nc1ccc2cc1CCc1cncc(c1)Nc1ncc(Cl)c(n1)NC2)c1ccccc1 [Example 18, N-[6-Chloro-2,4,8,19,23-pentaazatetracyclo[15.3.1.1(3,7).1(10,14)]tricosa-1(21),3(23),4,6,10(22),11,13,17,19-nonaen-13-yl]benzamide bis(trifluoroacetate)] |
| > 1 µM | > 1 µM | > 1 µM | > 1 µM | > 1 µM | N#Cc1ccccc1S(=O)(=O)Nc1ccc2cc1CCc1cncc(c1)Nc1ncc(Cl)c(n1)NC2 [Example 19, N-[6-Chloro-2,4,8,19,23-pentaazatetracyclo[15.3.1.1(3,7).1(10,14)]tricosa-1(21),3(23),4,6,10(22),11,13,17,19-nonaen-13-yl]-2-cyanobenzenesulfonamide bis(trifluoroacetate)] |
